ChEMBL document CHEMBL4402606, “Design and Characterization of the First Selective and Potent Mechanism-Based Inhibitor of Cytochrome P450 4Z1” (J Med Chem, 2020)

Assays:
Cytochrome P450 2C19 [1] = target: T1, Cytochrome P450 2C19 (Homo sapiens, UniProt P33261); experiment: Inhibition of CYP2C19 in human pooled liver microsomes using (S)-mephenytoin as substrate after 10 mins by UPLC-MS/MS analysis; assay type: ADME
CYP3A4/5 [2] = target: T2, CYP3A4/5 (Homo sapiens, UniProt P08684+P20815); experiment: Inhibition of CYP3A4/5 in human pooled liver microsomes using midazolam as substrate preincubated with NADPH for 30 mins followed by substrate addition and measured after 10 mins by UPLC-MS/MS analysis; assay type: ADME; settings: probe midazolam
CYP3A4/5 [3] = target: T2, CYP3A4/5; experiment: Inhibition of CYP3A4/5 in human pooled liver microsomes using midazolam as substrate after 10 mins by UPLC-MS/MS analysis; assay type: ADME; settings: probe midazolam
Cytochrome P450 2D6 [4] = target: T3, Cytochrome P450 2D6 (Homo sapiens, UniProt P10635); experiment: Inhibition of CYP2D6 in human pooled liver microsomes using dextromethorphan as substrate preincubated with NADPH for 30 mins followed by substrate addition and measured after 10 mins by UPLC-MS/MS analysis; assay type: ADME
Cytochrome P450 2C8 [5] = target: T4, Cytochrome P450 2C8 (Homo sapiens, UniProt P10632); experiment: Inhibition of CYP2C8 in human pooled liver microsomes using amodiaquine as substrate preincubated with NADPH for 30 mins followed by substrate addition and measured after 10 mins by UPLC-MS/MS analysis; assay type: ADME
T4 sequence (P10632 whole entry): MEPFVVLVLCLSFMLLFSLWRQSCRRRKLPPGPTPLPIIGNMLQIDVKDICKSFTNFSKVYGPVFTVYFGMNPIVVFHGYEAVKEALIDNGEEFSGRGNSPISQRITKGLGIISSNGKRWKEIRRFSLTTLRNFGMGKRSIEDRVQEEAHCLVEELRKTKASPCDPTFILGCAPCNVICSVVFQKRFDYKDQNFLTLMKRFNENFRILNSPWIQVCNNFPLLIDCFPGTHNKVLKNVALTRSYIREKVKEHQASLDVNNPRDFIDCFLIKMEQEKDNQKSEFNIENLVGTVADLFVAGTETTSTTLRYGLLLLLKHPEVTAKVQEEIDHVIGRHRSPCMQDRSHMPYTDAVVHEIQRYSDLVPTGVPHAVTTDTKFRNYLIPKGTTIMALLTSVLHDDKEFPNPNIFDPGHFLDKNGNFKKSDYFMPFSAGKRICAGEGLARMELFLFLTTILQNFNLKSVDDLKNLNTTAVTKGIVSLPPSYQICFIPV

Cytochrome P450 1A2 [6] = target: T5, Cytochrome P450 1A2 (Homo sapiens, UniProt P05177); experiment: Inhibition of CYP1A2 in human pooled liver microsomes using phenacetin as substrate preincubated with NADPH for 30 mins followed by substrate addition and measured after 10 mins by UPLC-MS/MS analysis; assay type: ADME
T5 sequence (P05177 whole entry): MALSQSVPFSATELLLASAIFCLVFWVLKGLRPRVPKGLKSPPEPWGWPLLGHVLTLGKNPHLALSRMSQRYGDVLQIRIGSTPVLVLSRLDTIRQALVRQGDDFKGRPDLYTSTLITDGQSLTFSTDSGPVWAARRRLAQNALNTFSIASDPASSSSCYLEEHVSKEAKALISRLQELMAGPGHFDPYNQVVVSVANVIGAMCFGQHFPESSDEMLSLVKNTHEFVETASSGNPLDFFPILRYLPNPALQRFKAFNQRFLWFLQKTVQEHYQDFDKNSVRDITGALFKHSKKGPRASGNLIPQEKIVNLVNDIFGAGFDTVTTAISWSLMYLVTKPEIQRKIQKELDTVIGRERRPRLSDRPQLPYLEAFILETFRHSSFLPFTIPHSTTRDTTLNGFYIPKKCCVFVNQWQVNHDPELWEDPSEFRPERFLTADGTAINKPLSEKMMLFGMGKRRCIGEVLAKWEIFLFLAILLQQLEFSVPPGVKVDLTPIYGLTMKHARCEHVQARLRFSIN

Cytochrome P450 2C9 [7] = target: T6, Cytochrome P450 2C9 (Homo sapiens, UniProt P11712); experiment: Inhibition of CYP2C9 in human pooled liver microsomes using tolbutamide as substrate preincubated with NADPH for 30 mins followed by substrate addition and measured after 10 mins by UPLC-MS/MS analysis; assay type: ADME
Cytochrome P450 2C8 [8] = target: T4, Cytochrome P450 2C8; experiment: Inhibition of CYP2C8 in human pooled liver microsomes using amodiaquine as substrate after 10 mins by UPLC-MS/MS analysis; assay type: ADME
Cytochrome P450 1A2 [9] = target: T5, Cytochrome P450 1A2; experiment: Inhibition of CYP1A2 in human pooled liver microsomes using phenacetin as substrate after 10 mins by UPLC-MS/MS analysis; assay type: ADME
Cytochrome P450 2C19 [10] = target: T1, Cytochrome P450 2C19; experiment: Inhibition of CYP2C19 in human pooled liver microsomes using (S)-mephenytoin as substrate preincubated with NADPH for 30 mins followed by substrate addition and measured after 10 mins by UPLC-MS/MS analysis; assay type: ADME
Cytochrome P450 2D6 [11] = target: T3, Cytochrome P450 2D6; experiment: Inhibition of CYP2D6 in human pooled liver microsomes using dextromethorphan as substrate after 10 mins by UPLC-MS/MS analysis; assay type: ADME
T47D = experiment: Cytotoxicity against human T47D cells at 3 uM after 24 hrs by CellTiter-Glo luminescent cell viability assay; assay type: cell-based
HepG2 = experiment: Cytotoxicity against human HepG2 cells at 3 uM after 24 hrs by CellTiter-Glo luminescent cell viability assay; assay type: cell-based; settings: hepg2, 24 h
Cytochrome P450 2C9 [12] = target: T6, Cytochrome P450 2C9; experiment: Inhibition of CYP2C9 in human pooled liver microsomes using tolbutamide as substrate after 10 mins by UPLC-MS/MS analysis; assay type: ADME
Cytochrome P450 4Z1 [13] = target: T7, Cytochrome P450 4Z1 (Homo sapiens, UniProt Q86W10); experiment: Inhibition of CYP4Z1 (unknown origin) in human HepG2 cell membranes transduced with lentiviral vector using luciferin-benzyl ether as substrate incubated for 5 mins followed by NADPH addition and measured after 20 mins by P450-glo luciferase based luminescence assay
T7 sequence (Q86W10 whole entry): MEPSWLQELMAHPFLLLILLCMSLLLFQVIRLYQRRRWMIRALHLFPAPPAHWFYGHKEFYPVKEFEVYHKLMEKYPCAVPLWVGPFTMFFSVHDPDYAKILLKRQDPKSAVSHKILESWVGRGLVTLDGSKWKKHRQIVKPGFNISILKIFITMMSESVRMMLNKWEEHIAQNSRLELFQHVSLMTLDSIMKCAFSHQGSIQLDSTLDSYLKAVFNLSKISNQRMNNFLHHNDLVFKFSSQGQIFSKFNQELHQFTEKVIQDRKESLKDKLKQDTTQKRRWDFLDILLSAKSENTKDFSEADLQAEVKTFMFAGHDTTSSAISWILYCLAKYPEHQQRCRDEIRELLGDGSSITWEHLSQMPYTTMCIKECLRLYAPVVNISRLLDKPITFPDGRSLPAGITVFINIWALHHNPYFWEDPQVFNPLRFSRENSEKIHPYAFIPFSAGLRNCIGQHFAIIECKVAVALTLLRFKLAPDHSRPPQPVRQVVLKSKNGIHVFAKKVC

Cytochrome P450 4Z1 [14] = target: T7, Cytochrome P450 4Z1; experiment: Inhibition of CYP4Z1 (unknown origin) in human HepG2 cell membranes transduced with lentiviral vector using luciferin-benzyl ether as substrate preincubated with NADPH for 30 mins followed by substrate addition and measured after 10 mins by P450-glo luciferase based luminescence assay

T6 sequence (P11712 whole entry): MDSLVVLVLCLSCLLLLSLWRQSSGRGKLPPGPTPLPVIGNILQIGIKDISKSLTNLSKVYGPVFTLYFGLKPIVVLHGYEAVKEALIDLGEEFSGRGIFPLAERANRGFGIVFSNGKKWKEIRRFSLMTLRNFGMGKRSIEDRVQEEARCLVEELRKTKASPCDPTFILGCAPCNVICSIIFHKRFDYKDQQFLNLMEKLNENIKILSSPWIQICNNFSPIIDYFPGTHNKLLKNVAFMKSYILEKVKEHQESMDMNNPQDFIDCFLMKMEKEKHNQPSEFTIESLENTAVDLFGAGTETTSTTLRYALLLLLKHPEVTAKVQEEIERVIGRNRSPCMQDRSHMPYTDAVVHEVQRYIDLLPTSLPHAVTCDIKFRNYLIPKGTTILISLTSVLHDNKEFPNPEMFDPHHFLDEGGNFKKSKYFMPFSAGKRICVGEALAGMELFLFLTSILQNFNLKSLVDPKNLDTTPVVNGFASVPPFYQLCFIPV
T3 sequence (P10635 whole entry): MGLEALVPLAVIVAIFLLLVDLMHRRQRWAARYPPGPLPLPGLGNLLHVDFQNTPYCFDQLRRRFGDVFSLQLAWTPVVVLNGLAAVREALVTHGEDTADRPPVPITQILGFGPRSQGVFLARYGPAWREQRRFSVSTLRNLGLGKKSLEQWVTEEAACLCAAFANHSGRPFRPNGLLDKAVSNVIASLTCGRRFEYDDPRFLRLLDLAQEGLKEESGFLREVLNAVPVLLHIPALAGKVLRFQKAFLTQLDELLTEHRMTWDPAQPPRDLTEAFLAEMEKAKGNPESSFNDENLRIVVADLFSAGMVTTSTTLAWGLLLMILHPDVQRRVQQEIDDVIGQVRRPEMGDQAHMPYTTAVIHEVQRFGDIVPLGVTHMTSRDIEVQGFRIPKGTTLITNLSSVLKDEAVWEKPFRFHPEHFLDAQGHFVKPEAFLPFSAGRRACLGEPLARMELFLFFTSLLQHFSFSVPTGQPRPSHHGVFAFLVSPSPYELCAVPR
T1 sequence (P33261 whole entry): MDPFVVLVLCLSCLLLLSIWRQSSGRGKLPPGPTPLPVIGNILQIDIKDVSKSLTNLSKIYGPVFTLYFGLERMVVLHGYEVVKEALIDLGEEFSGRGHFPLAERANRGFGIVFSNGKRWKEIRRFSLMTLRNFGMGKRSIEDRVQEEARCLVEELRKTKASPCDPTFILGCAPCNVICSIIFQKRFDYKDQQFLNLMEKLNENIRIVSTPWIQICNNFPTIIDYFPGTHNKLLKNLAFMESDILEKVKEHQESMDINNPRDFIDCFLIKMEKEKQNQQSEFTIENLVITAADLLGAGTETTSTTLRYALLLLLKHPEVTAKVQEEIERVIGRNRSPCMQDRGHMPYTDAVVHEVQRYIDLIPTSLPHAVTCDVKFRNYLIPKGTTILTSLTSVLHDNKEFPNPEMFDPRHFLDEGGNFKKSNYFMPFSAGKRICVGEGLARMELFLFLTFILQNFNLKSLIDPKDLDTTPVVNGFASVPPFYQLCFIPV

| SMILES | IC50 (Cytochrome P450 2C19 [1]) | IC50 at 10 min (CYP3A4/5 [2]) | IC50 at 10 min (CYP3A4/5 [3]) | IC50 (Cytochrome P450 2D6 [4]) | IC50 (Cytochrome P450 2C8 [5]) | IC50 (Cytochrome P450 1A2 [6]) | IC50 (Cytochrome P450 2C9 [7]) | IC50 (Cytochrome P450 2C8 [8]) | IC50 (Cytochrome P450 1A2 [9]) | IC50 (Cytochrome P450 2C19 [10]) | IC50 (Cytochrome P450 2D6 [11]) | Activity (T47D) | Activity (HepG2) | IC50 (Cytochrome P450 2C9 [12]) | IC50 (Cytochrome P450 4Z1 [13]) | IC50 (Cytochrome P450 4Z1 [14]) |
| --- | --- | --- | --- | --- | --- | --- | --- | --- | --- | --- | --- | --- | --- | --- | --- | --- |
| O=C(O)CCCCCCCNn1nnc2ccccc21 | 759 µM | 128 µM | 244 µM | 299 µM | 84 µM | 55 µM | 330 µM | 306 µM | 614 µM | 246 µM | 826 µM | Non-Toxic | Non-Toxic | 343 µM |  |  |
| O=C(O)CCCCCNn1nnc2ccccc21 | > 3000 µM | 766 µM | 1310 µM | 1710 µM | 954 µM | 228 µM | 1940 µM | 2310 µM | 2790 µM | 1640 µM | 2850 µM |  |  | > 3000 µM |  |  |
| Nn1nnc2ccccc21 |  |  |  |  |  |  |  |  |  |  |  |  |  |  | 154 µM | 12 µM |
